Test results as given in paper PMC6017654, “Ionic Liquid-Promoted Synthesis of Novel Chromone-Pyrimidine Coupled Derivatives, Antimicrobial Analysis, Enzyme Assay, Docking Study and Toxicity Study” (Molecules : A Journal of Synthetic Chemistry and Natural …, 2018).
pIC50: −log10 of the molar value. In brackets after ≈: the same amount, converted by molar mass.

Legend:
[1] = In vitro cytotoxicity, Sulforhodamine B (SRB) assay; assay type: cell-based, human; conditions: human, range 80 to 0.55 μg/mL
Source text: (§1) Toxicity scrutiny of synthesized compounds at the early phase of research paves the way to clinical trials and reduces the failure of potential therapeutics at later stages of clinical trials. To scrutinize the safety and selectivity of antimicrobial activity of the synthesized compounds, the compounds 6c and 6f were appraised for their toxicity against HeLa (a human cervical cancer cell line) and PC-3 (human prostate cancer cell line) by the Sulforhodamine B (SRB) assay using adriamycin as a standard drug.
(§2) The images were captured using an Eclipse Ti-S Inverted Research Microscope (Nikon, Tokyo, Japan). Image processing software used was NIS-Elements.

[2] = system: Staphylococcus aureus (NCIM-2901); test: In vitro antibacterial activity (MIC100, two fold serial dilution, NCCLS); assay type: cell-based; conditions: for MIC: Staphylococcus aureus, NCIM2901, 24 h, read-out: MIC100, S. aureus NCIM-2901, average of three readings
Experimental: (§3) All the synthesized compounds 4(a–f) and 6(a–f) were screened for their in vitro antibacterial activity against Staphylococcus aureus (NCIM-2901), Escherichia coli 1411 (standard laboratory strains) and Escherichia coli SM1411 (an acrAB deficient derivative of 1411). Minimum inhibitory concentration (MIC100) values were determined using methods recommended by National Committee for Clinical Laboratory Standards (NCCLS). Dimethyl sulfoxide (DMSO) was used as solvent control.
(§4) All the synthesized compounds 4(a–f) and 6(a–f) were screened for their in vitro antibacterial activity against Staphylococcus aureus (NCIM-2901) and Escherichia coli 1411 (standard laboratory strains) and Escherichia coli SM1411 (an acrAB deficient derivative of 1411). Minimum inhibitory concentration (MIC100) values were determined using the method recommended by National Committee for Clinical Laboratory Standards (NCCLS). In vitro antibacterial activities of the synthesized compounds 4(a–f) and 6(a–f) were tested in Nutrient Broth (NB) for Bacteria by the two fold serial dilution method. Seeded broth (broth containing microbial spores) was prepared in NB from 24 h old bacterial cultures on nutrient agar (Hi-media) at 37 ± 1 °C. The bacterial suspension was adjusted with sterile saline to a concentration of […]. The synthesized compounds and standard drug D-cycloserine were prepared by two fold serial dilutions to obtain the required concentrations. The tubes were incubated in BOD incubators at 37 ± 1 °C for bacteria. The MICs were recorded by visual observations after 24 h (for bacteria) of incubation.

[3] = system: Escherichia coli 1411; test: as above; assay type: cell-based; conditions: Escherichia coli, 1411, 24 h, read-out: MIC100
Experimental: as §3, §4

[4] = system: Escherichia coli SM1411 (an acrAB deficient derivative of 1411); test: as above; assay type: cell-based; conditions: 24 h, read-out: MIC100
Experimental: as §3, §4

[5] = system: Cryptococcus neoformans; test: In vitro antifungal activity (MIC100, CLSI/NCCLS); assay type: cell-based; conditions: C. neo., average of three readings, read-out: MIC 100
Experimental: (§5) The newly synthesized derivatives 4(a–f) and 6(a–f) were screened for their in vitro antifungal activity against different yeast and filamentous fungal pathogens. Minimum inhibitory concentration (MIC100) values for in vitro antifungal activity were determined by the methods recommended by National Committee for Clinical Laboratory Standards (NCCLS). Miconazole was used as standard drug. Dimethyl sulfoxide (DMSO) was used as solvent control.
(§6) In vitro antifungal activity was determined as per CLSI (formerly, NCCLS) guidelines. […] The medium yeast nitrogen base was dissolved in phosphate buffer pH 7 and it was autoclaved at 110 °C for 10 min. With each set a growth control without the antifungal agent and solvent control DMSO were included. The fungal strains were freshly sub cultured on to Sabouraud dextrose agar (SDA) and incubated at 25 °C for 72 h. The fungal cells were suspended in sterile distilled water and diluted to get 10^5 cells/mL. Further, ten microlitres of the standardized suspension was inoculated onto the control plates and the media incorporated with the antifungal agents. The inoculated plates were incubated at 25 °C for 48 h. The readings were taken at the end of 48 h and 72 h. The MIC was the lowest concentration of drug preventing growth of macroscopically visible colonies on drug containing plates when there was visible growth on the drug free control plates.

[6] = system: Candida glabrata; test: In vitro antifungal activity (MIC100, CLSI/NCCLS); assay type: cell-based; conditions: Nakaseomyces glabratus; C. glab.; average of three readings; read-out: MIC 100
Experimental: as §5, §6

[7] = system: Aspergillus fumigates; test: In vitro antifungal activity (MIC100, CLSI/NCCLS); assay type: cell-based; conditions: A. fum., average of three readings, read-out: MIC 100
Experimental: as §5, §6

[8] = system: Candida albicans; test: In vitro antifungal activity (MIC100, CLSI/NCCLS); assay type: cell-based; conditions: C. alb., average of three readings, read-out: MIC 100
Experimental: as §5, §6

[9] = system: Fusarium oxysporum; test: In vitro antifungal activity (MIC100, CLSI/NCCLS); assay type: cell-based; conditions: F. oxy., average of three readings, read-out: MIC 100
Experimental: as §5, §6

[10] = system: Aspergillus niger; test: In vitro antifungal activity (MIC100, CLSI/NCCLS); assay type: cell-based; conditions: A. nig., average of three readings, read-out: MIC 100
Experimental: as §5, §6

[11] = system: A. flavus; test: In vitro antifungal activity (MIC100, CLSI/NCCLS); assay type: cell-based; conditions: Aspergillus flavus; A. fla.; average of three readings; read-out: MIC 100
Experimental: as §5, §6

[12] = target: DdlB from E.coli (Escherichia coli, UniProt P07862); test: D-Alanine-D-alanine ligase (DdlB) enzyme inhibition, malachite green method; assay type: biochemical; conditions: 37 °C, 30 min incubation, 5% DMSO
Experimental: The key enzyme involved in the peptidoglycan biosynthesis is D-alanine-D-alanine ligase (Ddl), making it an important target for drug discovery. Inhibition of DdlB as an essential enzyme in either Gram-positive or Gram-negative organisms leads to the loss of cell shape and integrity followed by bacterial death. The synthesized derivatives 4(a–f) and 6(a–f) were tested for their inhibitory activity on DdlB from E.coli. The results are presented as IC50 values.
The D-Ala-adding activity of DdlB ligase was monitored by the detection of orthophosphate generated during the reaction based on the colorimetric malachite green method described by Walsh et al.. […] All the compounds were soluble in the assay mixture containing 5% DMSO. After 30 min of incubation, 100 µL Biomol reagent was added. After 5 min, absorbance was read at 650 nm. Residual activity was calculated with respect to a similar assay without inhibitor. To exclude possible non-specific (promiscuous) inhibitors, representative compounds 4(a–f) and 6(a–f) were also tested in the presence of Tween (0.003%), Triton X-114 (0.005%), and SDS (420 µM), as described by McGovern et al.. No significant differences were found when compared to measurements without detergents.

[13] = system: Swiss albino mice; test: In vivo acute oral toxicity study and gross behavioral study (OECD guideline No. 425)
Experimental: The in vivo acute oral toxicity and gross behavioral study results of the newly synthesized compounds 6c and 6f are as listed in Table 12 [26].
Each group, consisting of six Swiss albino mice (18–22 gm weight, overnight fasted), were kept in colony cage at 25 ± 2 °C with 55% relative humidity and 12 h of light and dark cycle. A specified dose of 100, 250, 500, 750, 1000, 1500 and 2000 mg/kg body weight of mice was administered orally as a single dose. The acute toxic symptoms and the behavioral changes produced by the test compounds were observed continuously for 4 h periods at 8th, 12th and 24th h on set of toxic symptoms and the gross behavioral changes were also recorded. These animals were maintained for further 10 days with observation made daily. The in vivo acute oral toxicity study was carried out at animal house at the Y.B. Chavan College of Pharmacy, Aurangabad IAEC approval number CPCSEA/IAEC/P’col-52/2015-16/115 [26].

[14] = system: HeLa (human cervical cancer cell line); test: In vitro cytotoxicity, Sulforhodamine B (SRB) assay; assay type: cell-based; conditions: up to 80 µg/mL
Source text: as §1, §2

[15] = system: ergosterol biosynthesis in Candida albicans (NCIM-3471); test: Ergosterol extraction and quantitation assay (UV sterol profile); assay type: cell-based; conditions: C. albicans NCIM3471; 6f 24 µg/mL, miconazole 25 µg/mL; 281.5 nm
Experimental: Changes in this absorption pattern are therefore indicative of interference in the synthetic pathway of ergosterol.
A single Candida albicans (NCIM-3471) colony from an overnight Sabouraud dextrose agar plate culture was used to inoculate 50 mL of Sabouraud dextrose broth for control and for various concentrations of the molecules. The cultures were incubated for 16 hours and harvested by centrifugation at 2700 rpm (856× g) for five min. The net weight of the cell pellet was determined. Three mL of 25% alcoholic potassium hydroxide solution was added to each pellet and vortex mixed for one min. Cell suspensions were transferred to sterile borosilicate glass screw-cap tubes and were incubated in an 85 °C water bath for one hour. Following incubation, the tubes were allowed to cool. Sterols were then extracted by addition of a mixture of 1 mL of sterile distilled water and 3 mL of n-heptane followed by vigorous vortex mixing for 3 min. The heptane layer was transferred to a clean borosilicate glass screw-cap tube and stored at −20 °C. Prior to analysis, 0.6 mL aliquot of sterol extract was diluted five fold in 100% ethanol and scanned spectrophotometrically between 240 nm and 300 nm with a spectrophotometer (UV-Visible Spectrophotometer 2100, Thermo Fischer Scientific, Waltham, MA, USA). The presence of ergosterol and the late sterol intermediate 24(28)-dehydroergosterol (DHE) in the extracted sample results in a characteristic four-peaked curve. The absence of detectable ergosterol in extracts was indicated by a flat line.
Sterols were extracted from cells and spectral profiles between 240 and 300 nm were determined.

ergosterol peak in UV sterol profile at the MIC value [15]	Structure (SMILES)	GI50 ([1]; HeLa cells, SRB assay) [µg/mL]	GI50 ([1]; PC-3 cells) [µg/mL]	melting point [°C]	MIC [2] [µg/mL]	MIC [3] [µg/mL]	MIC [4] [µg/mL]	MIC [5] [µg/mL]	MIC [6] [µg/mL]	MIC [7] [µg/mL]	MIC [8] [µg/mL]	MIC [9] [µg/mL]	MIC [10] [µg/mL]	MIC [11] [µg/mL]	pIC50 [12]	No. of Deaths ([13]; Swiss albino mice, single oral dose 100 to 2000 mg/kg)	lethal dose ([13]; mice, oral, single dose, no mortality up to 2000 mg/kg)	cell inhibition [14]	MIC100 ([2]; S. aureus NCIM-2901, 24 h, average of three readings) [µg/mL]
–	COc1cccc2c1C(=O)c1c(O)c3c(c(O)c1C2=O)C[C@@](O)(C(=O)CO)C[C@@H]3O[C@H]1C[C@H](N)[C@H](O)[C@H](C)O1 [Adriamycin, reference compound]	0.5 (≈ 0.92 µM)	0.5 (≈ 0.92 µM)	–	–	–	–	–	–	–	–	–	–	–	–	–	–	–	–
–	CC1=C(C(=O)NN)C(c2coc3ccccc3c2=O)NC(=S)N1 (stereo not drawn) [Compound 6b, 6-Methyl-4-(4-oxo-4H-chromen-3-yl)-2-thioxo-1,2,3,4-tetrahydropyrimidine-5-carbohydrazide]	–	–	198 to 200	76 (≈ 230 µM)	34 (≈ 103 µM)	34 (≈ 103 µM)	50 (≈ 151 µM)	60 (≈ 182 µM)	58 (≈ 176 µM)	64 (≈ 194 µM)	54 (≈ 163 µM)	48 (≈ 145 µM)	60 (≈ 182 µM)	3.91	–	–	–	–
–	CC1=C(C(=O)NN)C(c2coc3ccc(F)cc3c2=O)NC(=O)N1 (stereo not drawn) [Compound 6c, 4-(6-Fluoro-4-oxo-4H-chromen-3-yl)-6-methyl-2-oxo-1,2,3,4-tetrahydropyrimidine-5-carbohydrazide]	> 80	> 80	–	32 (≈ 96.3 µM)	14 (≈ 42.1 µM)	14 (≈ 42.1 µM)	40 (≈ 120 µM)	52 (≈ 156 µM)	60 (≈ 181 µM)	52 (≈ 156 µM)	58 (≈ 175 µM)	40 (≈ 120 µM)	42 (≈ 126 µM)	3.97	N	above 2000 mg/kg body weight	cell inhibition did not occur	–
–	CC1=C(C(=O)NN)C(c2coc3ccc(F)cc3c2=O)NC(=S)N1 (stereo not drawn) [Compound 6d, 4-(6-Fluoro-4-oxo-4H-chromen-3-yl)-6-methyl-2-thioxo-1,2,3,4-tetrahydropyrimidine-5-carbohydrazide]	–	–	146 to 148	32 (≈ 91.9 µM)	16 (≈ 45.9 µM)	18 (≈ 51.7 µM)	28 (≈ 80.4 µM)	40 (≈ 115 µM)	52 (≈ 149 µM)	44 (≈ 126 µM)	44 (≈ 126 µM)	28 (≈ 80.4 µM)	30 (≈ 86.1 µM)	3.95	–	–	–	40 (≈ 115 µM)
–	COc1ccc2occ(C3NC(=O)NC(C)=C3C(=O)NN)c(=O)c2c1 (stereo not drawn) [Compound 6e, 4-(6-Methoxy-4-oxo-4H-chromen-3-yl)-6-methyl-2-oxo-1,2,3,4-tetrahydropyrimidine-5-carbohydrazide]	–	–	208 to 210	156 (≈ 453 µM)	> 60	58 (≈ 168 µM)	16 (≈ 46.5 µM)	30 (≈ 87.1 µM)	32 (≈ 92.9 µM)	28 (≈ 81.3 µM)	30 (≈ 87.1 µM)	18 (≈ 52.3 µM)	16 (≈ 46.5 µM)	3.50	–	–	–	–
inhibition of ergosterol	Clc1ccc(COC(Cn2ccnc2)c2ccc(Cl)cc2Cl)c(Cl)c1 (stereo not drawn) [Miconazole, reference compound]	–	–	–	–	–	–	12 (≈ 28.8 µM)	25 (≈ 60.1 µM)	35 (≈ 84.1 µM)	25 (≈ 60.1 µM)	25 (≈ 60.1 µM)	12 (≈ 28.8 µM)	12 (≈ 28.8 µM)	–	–	–	–	–
